The results in this text go back to patent publication US20070155803A1, “Protease inhibitors” (ProZymex A/S, priority 2003, published 2007).

Molecules are shown by their SMILES. Square brackets hold non-standard residues; d marks the D form. Peptide text beside a SMILES is read from it. Phe(3-F) = N[C@@H](Cc1cccc(F)c1)C(=O)O; hPhe = N[C@@H](CCc1ccccc1)C(=O)O; Abu = CC[C@H](N)C(=O)O; azaGly = NNC(=O)O

Broadly, the IC50 is the concentration at which inhibition is half-maximal.

One test concerns the target T1, CYP3A4 (Homo sapiens, UniProt P08684).
T1 construct: purchased PanVera Vivid CYP3A4 Red Screening Kit
Description: CYP3A4 assay (Vivid CYP3A4 Red Screening Kit). Type of test: in vitro ADME. The following applies: read-out: Metabolism: CYP enzymes (20 μM cutoff or IC50) CYP3A4. The method, then: (§1) Tubes thawed on ice. 2× reaction buffer dispensed (room temperature) in two eppendorf tubes (for Mix A and Mix B).
(§2) Controls or compounds of the invention: Diluted to a concentration of 50 μM. Positive control compound: α-naphthoflavone.
(§3) Negative controls: DMSO and H2O.
(§4) Mix A: 485 μL reaction buffer, 10 μL regeneration system, 5 μL Baculosome reagent. Mixed gently and placed on ice.
(§5) Mix B: 88.5 μL reaction buffer, 1.5 μL substrate, 10 μL 10 mM NADP^+.
(§6) In a 96-well plate (Costar c-3904), 40 μL of 50 μM sample dispensed. 50 μl Mix A added. Incubated 20 min. at rt. Then, 10 μl of Mix B added. Fluorescence determined (Molecular Devices, SPECTRAmax Gemini EM): Ex: 409 nm, Em: 460 nm, at 37° C. for 20 min. (Automix: 5 s, top read.).
(§7) Following the procedure for CYP1A2, using the appropriate kits below, the effect of a compound of the invention on the other CYP enzymes was determined:
Vivid® CYP3A4 Red Screening Kit from PanVera.

A further test concerns the target T2, CYP2C9 (Homo sapiens, UniProt P11712).
T2 construct: purchased PanVera Vivid CYP2C9 Red Screening Kit
Description: CYP2C9 assay (Vivid CYP2C9 Red Screening Kit). The class given is in vitro ADME. The following applies: 20 μM cutoff; read-out: Metabolism: CYP enzymes (20 μM cutoff or IC50) CYP2C9. Here is the method:
as §1, §2, §3, §4, §5, §6, §7
Vivid® CYP2C9 Red Screening Kit from PanVera.

Another test deals with T3, CYP2C19 (Homo sapiens, UniProt P33261).
T3 construct: purchased PanVera Vivid CYP2C19 Red Screening Kit
T3 sequence (P33261 whole entry): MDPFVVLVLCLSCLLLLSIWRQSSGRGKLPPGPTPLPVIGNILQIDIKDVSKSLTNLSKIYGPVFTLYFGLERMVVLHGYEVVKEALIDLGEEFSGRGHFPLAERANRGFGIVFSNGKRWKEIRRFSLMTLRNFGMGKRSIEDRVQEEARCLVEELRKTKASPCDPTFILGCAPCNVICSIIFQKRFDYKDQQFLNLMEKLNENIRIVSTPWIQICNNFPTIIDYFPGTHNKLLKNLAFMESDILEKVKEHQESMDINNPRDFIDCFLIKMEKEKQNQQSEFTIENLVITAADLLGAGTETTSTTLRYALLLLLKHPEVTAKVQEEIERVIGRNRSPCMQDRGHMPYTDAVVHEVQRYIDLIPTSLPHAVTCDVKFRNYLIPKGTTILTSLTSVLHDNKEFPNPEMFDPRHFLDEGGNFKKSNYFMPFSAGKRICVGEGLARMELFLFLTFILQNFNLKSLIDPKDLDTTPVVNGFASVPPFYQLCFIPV
Description: CYP2C19 assay (Vivid CYP2C19 Red Screening Kit). The following applies: 20 μM cutoff; read-out: Metabolism: CYP enzymes (20 μM cutoff or IC50) CYP2C19. Type of test: in vitro ADME. The method, then:
as §1, §2, §3, §4, §5, §6, §7
Vivid® CYP2C19 Red Screening Kit from PanVera.

The target of test [1] is T4, Human neutrophil elastase (Homo sapiens, UniProt P08246).
T4 construct: purchased Calbiochem 324681
T4 sequence (P08246 30-267): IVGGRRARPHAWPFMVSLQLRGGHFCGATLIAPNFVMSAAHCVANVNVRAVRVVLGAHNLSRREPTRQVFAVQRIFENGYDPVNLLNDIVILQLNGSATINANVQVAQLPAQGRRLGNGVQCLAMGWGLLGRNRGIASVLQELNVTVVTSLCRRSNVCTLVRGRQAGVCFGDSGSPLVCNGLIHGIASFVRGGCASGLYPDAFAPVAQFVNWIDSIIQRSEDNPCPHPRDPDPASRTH
Put plainly: Human neutrophil elastase assay. Type of test: biochemical. The method, then: Human Neutrophil Elastase Assay
Using this assay, the selectivity of a compound of the invention for hDPP-I over human neutrophil elastase was determined, using a fluorogenic substrate.
Buffer containing 100 mM Tris/HCl pH 7.5 (25° C.), and 500 mM NaCl.
Human neutrophil elastase (Calbiochem Cat # 324681, 50 ng/µL stock) was reconstituted in 50 mM sodium acetate pH 5.5 and 200 mM NaCl, then stored at −20° C. Diluted to 1 ng/μL in buffer just prior to experiment.
MeOSuc-Ala-Ala-Pro-Val-AMC (Calbiochem Cat # 324740) was dissolved in buffer to 4 mM (398 μL/mg) just prior to experiment. Km was determined to be 560 μM.
The assay was performed in 96-well plates. 80 μL assay buffer was added to the well followed by 10 μL enzyme (1 ng/μL). Incubated for 10 min. at 37° C., then 10 μL substrate was added, and subsequently a compound of the invention (10 μM in the assay) The excitation wavelength was 380 nm, and the emission was measured at 460 nm for 10-20 minutes at 37° C. Each measurement was made in duplicate. In the software (SOFTmax Pro) used for data,collection from the fluorometer (Molecular Devices: Gemini XS), it was ensured that the measured slopes were linear (R^2>0.99). Data was exported to GraphPad Prism and nonlinear regression was performed using the option sigmoidal dose-response (variable slope).

In the next test the target is T5, Human liver cathepsin H (Homo sapiens, UniProt P09668).
T5 construct: Human liver catheptin H (Enzyme System Products Cath-1; 25 μg); purchased Enzyme System Products Cath-1; host or cells: human liver
T5 sequence (P09668 98-335): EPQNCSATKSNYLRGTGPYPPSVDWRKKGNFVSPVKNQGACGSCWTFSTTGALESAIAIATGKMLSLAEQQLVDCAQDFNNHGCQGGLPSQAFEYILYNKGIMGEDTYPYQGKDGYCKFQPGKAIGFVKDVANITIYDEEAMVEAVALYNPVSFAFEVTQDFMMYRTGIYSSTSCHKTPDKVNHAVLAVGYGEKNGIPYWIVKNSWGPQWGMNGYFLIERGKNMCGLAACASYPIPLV
Put plainly: Human liver cathepsin H assay. Type of test: biochemical. Here is the method: Human Liver Cathepsin H Assay
Using this assay, the selectivity of a compound of the invention for hDPP-I over human cathepsin H was determined, using a fluorogenic substrate.
Human liver catheptin H (Enzyme System Products Cath-1; 25 μg) was solubilized in 60 μL enzyme buffer (giving a stock with a concentration of 417 ng/μL). Enzyme stock (5 μL) was diluted with 1245 μL enzyme-buffer. Prior to running experiment 1 μL 0.5 M DTT/100 μL enzyme solution was added. Incubated for 5 minutes on ice, then added to reaction mixture.
ARG-AFC*2HBR (Enzyme System Products AF002; 10.6 mg) was dissolved in 1 mL DMSO, giving a 20 mM solution. Km for this substrate has been determined to be 27 μM
The assay was performed in 96-well plates. 50 μL assay buffer was added to the well followed by 25 μL reference inhibitor (cystatin; stock 1 mg/mL, diluted with assay buffer to give 10 nM in assay) or a compound of the invention (diluted with assay buffer to give 10 μM in the assay). Then 25 μL (40 ng) enzyme was added, and 1 min. later (at 37° C.), 100 μL ARG-AFC substrate (15 μM in the assay) was added. The excitation wavelength was 400 nm, and the emission was measured at 505 nm for 10-20 minutes at 37° C. […] In the software (SOFTmax Pro) used for data collection from the fluorometer (Molecular Devices: Gemini XS) it was ensured that the measured slopes were linear (R^2>0.99). […]

T1 sequence (P08684 whole entry): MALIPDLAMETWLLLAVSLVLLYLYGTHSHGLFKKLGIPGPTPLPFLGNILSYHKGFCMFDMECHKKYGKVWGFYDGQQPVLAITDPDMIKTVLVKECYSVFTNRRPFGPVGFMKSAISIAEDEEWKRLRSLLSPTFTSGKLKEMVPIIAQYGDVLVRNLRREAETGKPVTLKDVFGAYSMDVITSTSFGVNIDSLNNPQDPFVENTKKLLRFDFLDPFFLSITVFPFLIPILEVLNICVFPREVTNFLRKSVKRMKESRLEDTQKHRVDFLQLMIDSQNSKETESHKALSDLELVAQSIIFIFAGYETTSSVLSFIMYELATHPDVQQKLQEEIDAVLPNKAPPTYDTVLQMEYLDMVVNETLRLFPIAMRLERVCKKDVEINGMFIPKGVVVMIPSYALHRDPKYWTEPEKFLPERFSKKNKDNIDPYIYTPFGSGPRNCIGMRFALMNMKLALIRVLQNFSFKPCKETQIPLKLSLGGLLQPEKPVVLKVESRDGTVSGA
T2 sequence (P11712 whole entry): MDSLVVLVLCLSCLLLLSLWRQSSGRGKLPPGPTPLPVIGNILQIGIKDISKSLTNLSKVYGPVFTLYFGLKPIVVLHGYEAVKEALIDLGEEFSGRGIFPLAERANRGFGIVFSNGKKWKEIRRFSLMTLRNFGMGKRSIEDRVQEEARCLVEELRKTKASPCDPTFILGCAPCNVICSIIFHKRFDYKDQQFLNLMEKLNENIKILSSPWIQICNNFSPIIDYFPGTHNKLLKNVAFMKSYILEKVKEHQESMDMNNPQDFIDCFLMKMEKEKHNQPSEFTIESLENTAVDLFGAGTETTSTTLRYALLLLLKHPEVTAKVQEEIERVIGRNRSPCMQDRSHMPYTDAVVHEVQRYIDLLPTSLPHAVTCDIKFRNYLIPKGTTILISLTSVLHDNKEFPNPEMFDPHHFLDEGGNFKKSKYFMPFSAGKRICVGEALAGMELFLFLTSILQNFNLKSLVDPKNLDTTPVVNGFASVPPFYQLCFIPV

On to `CC[C@H](N)C(=O)NNC(=O)N[C@@H](CCc1ccccc1)C(=O)N[C@@H](Cc1cccc(F)c1)C(N)=O` [Example 11, 1-(2S-2-Aminobutanoyl)-4-[2S-N-[2S-3-(m-fluorophenyl)propan-2-yl-amide]-4-phenylbutan-2-yl-amide]semicarbazide] (H-[Abu][azaGly][hPhe][Phe(3-F)]-NH2), for which the concentration for half-maximal inhibition (IC50) is 0.6 µM at CYP3A4; more than 20 µM at CYP2C9; more than 20 µM at CYP2C19; more than 10 µM in test [1] (human neutrophil elastase, 10 μM cutoff, read-out: Secondary enzymatic screening (10 μM cutoff or IC50) Neutrophil elastase); 3.2 µM at Human liver cathepsin H (human liver cathepsin H, read-out: Secondary enzymatic screening (10 μM cutoff or IC50) Cathepsin H). Besides, the “Inhibition of neutrophil elastase (in words)” value in test [1] is “does not inhibit”. Further, the “Inhibition of Cathepsin H (in words)” value at Human liver cathepsin H is recorded as “does not inhibit”.
